From patent publication US5858992A, “Non-reducing saccharides, their preparation and use” (Kabushiki Kaisha Hayashibara Seibutsu Kagaku Kenkyujo, priority 1995, dated 1999)

What was measured:
[1] = Maillard reaction (coloration with glycine); format: physicochemical; conditions: 10 w/v % saccharide, one w/v % glycine, 50 mM phosphate buffer pH 7.0, 100° C. for 90 min, 1-cm light-path cell
[2] = test system: Bifidobacterium adolescentis JCM 1275; assay: Assimilation test by intestinal microorganism; format: cell-based; conditions: 0.5 w/v % saccharide in PYF broth, 37° C., 96 hours; free of sugar: -
[3] = test system: Bifidobacterium animalis JCM 1190; assay: Assimilation test by intestinal microorganism; format: cell-based; conditions: 0.5 w/v % saccharide in PYF broth, 37° C., 96 hours; free of sugar: -
[4] = test system: Bifidobacterium bifidum JCM 1255; assay: Assimilation test by intestinal microorganism; format: cell-based; conditions: 0.5 w/v % saccharide in PYF broth, 37° C., 96 hours; free of sugar: -
[5] = test system: Bifidobacterium breve JCM 1192; assay: Assimilation test by intestinal microorganism; format: cell-based; conditions: 0.5 w/v % saccharide in PYF broth, 37° C., 96 hours; free of sugar: -
[6] = test system: Bifidobacterium infantis JCM 1222; assay: Assimilation test by intestinal microorganism; format: cell-based; conditions: 0.5 w/v % saccharide in PYF broth, 37° C., 96 hours; free of sugar: -
[7] = test system: Bifidobacterium longum JCM 1217; assay: Assimilation test by intestinal microorganism; format: cell-based; conditions: 0.5 w/v % saccharide in PYF broth, 37° C., 96 hours; free of sugar: -
[8] = test system: Lactobacillus fermentum IFO 3959; assay: Assimilation test by intestinal microorganism; format: cell-based; conditions: 0.5 w/v % saccharide in PYF broth, 37° C., 96 hours; free of sugar: -
[9] = test system: Lactobacillus plantarum IFO 3070; assay: Assimilation test by intestinal microorganism; format: cell-based; conditions: 0.5 w/v % saccharide in PYF broth, 37° C., 96 hours; free of sugar: -
[10] = test system: Eubacterium aerofaciens ATCC 25986; assay: Assimilation test by intestinal microorganism; format: cell-based; conditions: 0.5 w/v % saccharide in PYF broth, 37° C., 96 hours; free of sugar: -
[11] = test system: Bacteroides distasonis JCM 5825; assay: Assimilation test by intestinal microorganism; format: cell-based; conditions: 0.5 w/v % saccharide in PYF broth, 37° C., 96 hours; free of sugar: -
[12] = test system: Bacteroides vulgatus JCM 5826; assay: Assimilation test by intestinal microorganism; format: cell-based; conditions: 0.5 w/v % saccharide in PYF broth, 37° C., 96 hours; free of sugar: -
[13] = test system: Bacteroides uniformis JCM 5828; assay: Assimilation test by intestinal microorganism; format: cell-based; conditions: 0.5 w/v % saccharide in PYF broth, 37° C., 96 hours; free of sugar: -
[14] = test system: Clostridium perfringens JCM 3816; format: cell-based; conditions: 0.5 w/v % saccharide in PYF broth, 37° C., 96 hours; free of sugar: -
[15] = test system: Clostridium ramosum JCM 1298; assay: Assimilation test by intestinal microorganism; format: cell-based; conditions: 0.5 w/v % saccharide in PYF broth, 37° C., 96 hours; free of sugar: -
[16] = test system: Clostridium sporogenes JCM 1416; assay: Assimilation test by intestinal microorganism; format: cell-based; conditions: 0.5 w/v % saccharide in PYF broth, 37° C., 96 hours; free of sugar: ±
Description: To evaluate the growth rate of and to judge the assimilability by the microorganisms, the resultant broth was diluted 5-fold, and the turbidity of the dilution was measured at a wavelength of 750 nm in a 1-cm light-path cell. […] The criteria were in Table 3, and the results were in Tables 4 and 5: […]

[17] = test system: Streptococcus faecalis IAM 10065; assay: Assimilation test by intestinal microorganism; format: cell-based; conditions: 0.5 w/v % saccharide in PYF broth, 37° C., 96 hours; free of sugar: -
[18] = test system: Peptostreptococcus prevotii ATCC 9321; assay: Assimilation test by intestinal microorganism; format: cell-based; conditions: 0.5 w/v % saccharide in PYF broth, 37° C., 96 hours; free of sugar: -
[19] = test system: Escherichia coli IFO 3301; assay: Assimilation test by intestinal microorganism; format: cell-based; conditions: 0.5 w/v % saccharide in PYF broth, 37° C., 96 hours; free of sugar: -
Salivary amylase = biological target: T1, Salivary amylase (Homo sapiens, UniProt P0DUB6); assay: in vitro
T1 sequence (P0DUB6 16-511): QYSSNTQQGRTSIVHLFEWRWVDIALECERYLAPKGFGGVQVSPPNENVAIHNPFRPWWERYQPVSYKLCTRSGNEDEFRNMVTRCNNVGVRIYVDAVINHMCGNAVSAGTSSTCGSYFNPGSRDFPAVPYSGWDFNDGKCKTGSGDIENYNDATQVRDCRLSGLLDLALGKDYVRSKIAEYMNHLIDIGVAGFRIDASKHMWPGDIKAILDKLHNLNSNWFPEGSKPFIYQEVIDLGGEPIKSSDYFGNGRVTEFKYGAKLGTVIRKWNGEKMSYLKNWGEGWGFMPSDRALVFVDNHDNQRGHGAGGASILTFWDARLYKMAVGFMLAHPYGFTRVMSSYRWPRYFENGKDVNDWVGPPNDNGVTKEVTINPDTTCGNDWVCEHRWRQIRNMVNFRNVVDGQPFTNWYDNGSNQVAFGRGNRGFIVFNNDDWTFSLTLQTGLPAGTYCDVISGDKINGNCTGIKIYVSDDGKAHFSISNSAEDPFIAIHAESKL

in vitro [20] = conditions: gastric acid
Pancreatic juice amylase = biological target: T2, Pancreatic juice amylase (Homo sapiens, UniProt P04746); assay: in vitro
T2 sequence (P04746 16-511): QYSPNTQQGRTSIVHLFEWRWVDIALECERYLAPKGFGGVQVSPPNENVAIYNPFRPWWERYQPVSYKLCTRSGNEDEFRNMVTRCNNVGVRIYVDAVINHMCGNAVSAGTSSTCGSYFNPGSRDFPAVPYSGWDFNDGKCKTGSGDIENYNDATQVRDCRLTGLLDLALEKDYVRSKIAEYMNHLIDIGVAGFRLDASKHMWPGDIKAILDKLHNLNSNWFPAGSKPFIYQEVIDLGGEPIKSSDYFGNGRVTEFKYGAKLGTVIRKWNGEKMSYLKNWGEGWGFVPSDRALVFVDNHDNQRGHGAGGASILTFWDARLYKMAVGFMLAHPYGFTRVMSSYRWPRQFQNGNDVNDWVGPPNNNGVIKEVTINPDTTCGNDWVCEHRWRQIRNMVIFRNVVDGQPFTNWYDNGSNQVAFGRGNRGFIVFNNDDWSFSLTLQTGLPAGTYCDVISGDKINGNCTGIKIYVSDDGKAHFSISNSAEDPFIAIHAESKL

[21] = test system: Streptococcus sobrinus ATCC 27351; assay: Acid formation by dental caries-inducing microorganisms; conditions: for pH at each fermentation time (min): living wet cells, 0.02M saccharide, Stephen buffer pH 7.0, 37° C.
[22] = test system: Clostridium butyricum JCM 1391; format: cell-based; conditions: 0.5 w/v % saccharide in PYF broth, 37° C., 96 hours; free of sugar: -
glucosyltransferase = assay: Inhibition of insoluble glucan formation by glucosyltransferase from dental caries-inducing microorganism; format: biochemical, Streptococcus sobrinus strain (ATCC 27351); conditions: sucrose plus test saccharide (one ml of one w/v % each), 37° C., 16 hours
Description: To a mixture solution consisting of one ml of one w/v % sucrose solution, one ml of one w/v % of a test saccharide solution, and 1.5 ml of 0.1M phosphate buffer (pH 6.8) was added 0.5 ml solution containing a crude glucosyltransferase specimen in a total protein content of 10 mg, and the mixture solution was placed in a small test tube which was then fixed and slanted to give a grade 30 degrees and allowed to react at 37° C. for 16 hours. The reaction mixture was transferred gently to another test tube and mixed with a solution obtained by washing carefully with 4 ml water the remaining substances adhered to the inner walls of the small test tube, and the mixture solution was centrifuged to obtain a precipitate as a non-adsorbed glucan. The amounts of the adsorbed- and non-adsorbed glucans thus obtained were respectively quantified by the anthrone-sulfuric acid method, and the total amount of them was regarded as the amount of the formed insoluble glucans. As a control system, a reaction system using water in place of the test saccharide solution, i.e. a reaction system using sucrose as a saccharide, was provided.

in vitro [23] = conditions: small intestinal mucosa enzyme

Row | Compound | Coloration degree (at a wavelength of 480 nm) [1] | Judgement of assimilation (turbidity at 750 nm, ×5) [2] | Judgement of assimilation (turbidity at 750 nm, ×5) [3] | Judgement of assimilation (turbidity at 750 nm, ×5) [4] | Judgement of assimilation (turbidity at 750 nm, ×5) [5] | Judgement of assimilation (turbidity at 750 nm, ×5) [6] | Judgement of assimilation (turbidity at 750 nm, ×5) [7] | Judgement of assimilation (turbidity at 750 nm, ×5) [8] | Judgement of assimilation (turbidity at 750 nm, ×5) [9] | Judgement of assimilation (turbidity at 750 nm, ×5) [10] | Judgement of assimilation (turbidity at 750 nm, ×5) [11] | Judgement of assimilation (turbidity at 750 nm, ×5) [12] | Judgement of assimilation (turbidity at 750 nm, ×5) [13] | Judgement of assimilation (turbidity at 750 nm, ×5) [14] | Judgement of assimilation (turbidity at 750 nm, ×5) [15] | Judgement of assimilation (turbidity at 750 nm, ×5) [17] | Judgement of assimilation (turbidity at 750 nm, ×5) [18] | Judgement of assimilation (turbidity at 750 nm, ×5) [19] | metabolised (Salivary amylase) | metabolised (Pancreatic juice amylase) | other results
1 | OC[C@H]1O[C@H](OC[C@H]2OC(O)[C@H](O)[C@@H](O)[C@@H]2O)[C@H](O)[C@@H](O)[C@@H]1O (stereo partly shown) [Isomaltose, reference compound] | 0.938 | +++ (0.3 or higher) | +++ (0.3 or higher) | + (0.15 or higher but less than 0.2) | +++ (0.3 or higher) | +++ (0.3 or higher) | ++ (0.2 or higher but less than 0.3) | - (Less than 0.1) | - (Less than 0.1) | + (0.15 or higher but less than 0.2) | + (0.15 or higher but less than 0.2) | - (Less than 0.1) | - (Less than 0.1) | ± (0.1 or higher but less than 0.15) | - (Less than 0.1) | + (0.15 or higher but less than 0.2) | - (Less than 0.1) | - (Less than 0.1) | 0% | 0.2% | Judgement of assimilation (turbidity at 750 nm, ×5) [16]: ± (0.1 or higher but less than 0.15); degraded (in vitro [20]): 0%; pH reduction / acid fermentation, in words [21]: slight; pH at each fermentation time (min) ([21]; 0 min): 7.0; pH at each fermentation time (min) ([21]; 5 min): 7.0; pH at each fermentation time (min) ([21]; 15 min): 6.9; pH at each fermentation time (min) ([21]; 30 min): 6.9; pH at each fermentation time (min) ([21]; 60 min): 6.8; pH at each fermentation time (min) ([21]; 90 min): 6.7
2 | OC[C@H]1O[C@H](O[C@H]2O[C@H](CO)[C@@H](O)[C@H](O)[C@H]2O)[C@H](O)[C@@H](O)[C@@H]1O [Trehalose, α,α-trehalose, reference compound] | 0.007 | + (0.15 or higher but less than 0.2) | + (0.15 or higher but less than 0.2) | + (0.15 or higher but less than 0.2) | - (Less than 0.1) | - (Less than 0.1) | ++ (0.2 or higher but less than 0.3) | + (0.15 or higher but less than 0.2) | ++ (0.2 or higher but less than 0.3) | - (Less than 0.1) | ++ (0.2 or higher but less than 0.3) | + (0.15 or higher but less than 0.2) | ++ (0.2 or higher but less than 0.3) | +++ (0.3 or higher) | + (0.15 or higher but less than 0.2) | + (0.15 or higher but less than 0.2) | + (0.15 or higher but less than 0.2) | - (Less than 0.1) | 0% | 0% | Judgement of assimilation (turbidity at 750 nm, ×5) [22]: +++ (0.3 or higher); Yield of non-adsorbed glucans (glucosyltransferase; sucrose alone control 923): 1,130 pg/ml; Yield of adsorbed glucans (glucosyltransferase; sucrose alone control 1,160): 772 pg/mL; Inhibitory percentage (%) on insoluble glucans formation (glucosyltransferase; vs sucrose alone): 8.7%; metabolised (in vitro [23]): 1.3%; pH reduction / acid fermentation, in words [21]: moderate; pH at each fermentation time (min) ([21]; 0 min): 7.0; pH at each fermentation time (min) ([21]; 5 min): 6.7; pH at each fermentation time (min) ([21]; 15 min): 5.3; pH at each fermentation time (min) ([21]; 30 min): 4.7; pH at each fermentation time (min) ([21]; 60 min): 4.3; pH at each fermentation time (min) ([21]; 90 min): 4.2
